# Tests used:
# [1] = system: phospholipase C isoforms beta, delta, and gamma; conditions: for effect on KM for substrate phosphatidylinositol bis-phosphate: 10 μM lysocerebroside, 5 μM lysosphingomyelin; for diminution in Vmax / increase in calcium ion concentration required for optimal activity: 10 μM lysocerebroside or 5 μM lysosphingomyelin
# Experimental: The effects of sphingosine, lysocerebroside, and lysosphingomyelin on the kinetics of pure, immunologically isolated phospholipase C isoforms beta, delta, and gamma (which are commercially available) was examined. For each isoform, 10 μM sphingosine was added to a reaction medium consisting of 1 μg phospholipase C isoform/ml, Tris-malate buffer (50 mM, pH 7.0) containing 100 μM phosphatidyl inositol bis-phosphate tri-ammonium salt, 0.01 μCi tritium labeled phosphatidyl inositol bis-phosphate, 100 mM NaCl, 10 mM CaCl2, and 5 mM 2-merceptoethanol.
# [2] = system: bradykinin-stimulated phosphoinositide signalling in PC12 cells; test: Phosphoinositide hydrolysis assay (InsP3 production) in PC12 cells; format: cell-based, rat; conditions: for sensitivity of PC12 cells to bradykinin: at relatively moderate levels
# Excerpt: PC12 cells, from a rat adrenal pheochromocytoma cell line, were used as a model of neurons from the peripheral nervous system. These cells were obtained from a common laboratory cell culture stock and grown in plastic culture flasks in Dulbecco's modified Eagle's medium (DMEM) supplemented with 5% heat-inactivated horse serum and 10% heat-inactivated fetal calf serum (PC12 cells are also available from the American Type Culture Collection under the Accession number CRL 1721). The cells were grown at 37° C. in 5% CO2 in air until a confluent monolayer formed. The cells were dispersed into 24-well plastic tissue culture plates at a density of 10^5 cells per well and used for the phosphoinositide hydrolysis assays (as described in EXAMPLE 2).
# Receptor-stimulated and basal unstimulated hydrolysis of phosphoinositides was measured by the following procedure. In order to label the cellular phosphoinositides metabolically, the primary cultures of chick cortical neurons (described in Example 1) were incubated overnight with 0.5 ml Dulbecco's modified Eagle's medium containing 1 μCi [^3 H]myo-inositol per well. The cells were then washed twice with 1 ml Dulbecco's phosphate-buffered saline (PBS) and 0.5 ml of PBS containing 4.5 g/L glucose was added. Sphingosine, psychosine, lysosulphatide, or lysosphingomyelin, prepared as the hydrochloride salt dissolved in water, were then added to produce the desired extracellular concentration in specific wells, and the 24-well plates were swirled gently on a rotary shaker for 1 hr at 23° C. The cells were then washed twice with 1 ml PBS, and pre-incubated for 15 minutes at 37° C. with 0.5 ml PBS containing 10 mM LiCl and the compound to be tested was added. After 30 minutes, the experiment was terminated by adding 1 ml of ice-cold methanol to each well and transferring the material in each well to polypropylene tubes that contained 0.4 ml water and 1 ml chloroform. The tubes were vortexed thoroughly, then centrifuged at 500×g for 5 minutes to separate the aqueous and chloroform phases. For each sample, a 1.5-ml aliquot of the upper (aqueous) phase was applied to a small column containing BioRad AG1X8 resin (formate form). Free [^3 H]inositol and [^3 H]glycerophosphoinositol were washed through the column with 5 ml of a solution containing 5 mM sodium borate and 60 mM sodium formate. The total phosphorylated [^3 H] inositol fraction was eluted from the column for radiometric scintillation spectrometry analysis with 3 ml 1.0 M ammonium formate/0.1 M formic acid;
# In addition, a 0.5 ml aliquot of the lower (chloroform) phase of each sample was analyzed radiometrically by scintillation spectrometry in order to determine the quantity of lipid-bound [^3 H]myo-inositol. Estimation of phosphoinositide hydrolysis by phospholipase C is based upon the quantity of [^3 H]inositol phosphates produced, and is expressed as the percentage of the latter relative to total free and componential [^3 H]inositol (dpm ammonium formate+dpm chloroform fractions).
# PC12 cells display a strong phospholipase C-linked metabotropic receptor response to bradykinin, an effective pain producing agonist.
# The degree of InsP3 inhibition is a function of the log of the psychosine concentration for a fixed time of exposure (FIG. 4). Exposing PC12 cells to 50 μM exogenous psychosine for 30 minutes was sufficient to reduce a metabotropic response to 10 μM bradykinin to half maximum.
SMILES,calcium ion concentration required for optimal activity ([1]; 10 μM sphingosine),effect on KM for substrate phosphatidylinositol bis-phosphate ([1]; 10 μM sphingosine),"basal, unstimulated level of InsP3 production ([2]; PC12 cells)",diminution in Vmax [1],increase in calcium ion concentration required for optimal activity [1] [fold],InsP3 production ([2]; PC12 cells),sensitivity of PC12 cells to bradykinin [2],"IC50 ([2]; PC12 cells, 30 minutes exposure, 10 μM bradykinin, read-out: exogenous concentration reducing metabotropic response to bradykinin to half maximum) [µM]"
CCCCCCCCCCCCC/C=C/[C@@H](O)[C@@H](N)CO [sphingosine],decrease,no effect,tonically upregulated,,,,,
"CCCCCCCCCCCCC/C=C/[C@@H](O)[C@@H](N)COP(=O)([O-])OCC[N+](C)(C)C [lysosphingomyelin, sphingosyl phosphoryicholine]",,no change,,60%±10%,5,strongly inhibit,can entirely block,
"CCCCCCCCCCCCC/C=C/[C@@H](O)[C@@H](N)CO[C@@H]1O[C@H](CO)[C@H](O)[C@H](O)[C@H]1O [psychosine, lysocerebroside]",,no change,,60%±10%,5,strongly inhibit,can entirely block,50

# From patent US6083920A, “Compositions for modulating intracellular inositol trisphosphate concentration” (priority 1996, dated 2000)
